Molecules are shown by their SMILES. Where two headings read alike, the source gives them in different places.

Data set [1] has as its system phospho-GSK3 (Ser9). The data set is described as follows: Cellular pGSK3 assay (phospho-GSK3 ELISA). It is filed as cell-based. Conditions: Homo sapiens, MCF7 cells, 48 h, read-out: Cellular pGSK3 pathway assay. The procedure:
In order to study the cellular activity of the compounds according to the present invention, an ELISA-based assay has been established for the phosphorylated protein glycogen synthetase kinase 3 (GSK3). The assay is based on a solid phase sandwich ELISA that detects endogenous levels of phosphorylated GSK3 using a phospho-GSK3 (Ser9) specific antibody (BioSource International, Inc.; Catalog #KHO0461). After incubation with cell lysates, the coated antibody captures the phosphorylated GSK3 protein. Following extensive washing, GSK3 polyclonal antibody is added to detect the captured phospho-GSK3 protein. Secondary antibody (anti-rabbit IgG-HRP) is then used to recognize the bound detection antibody. After the second incubation and washing to remove all the excess anti-rabbit IgG-HRP, a substrate solution is added, which is acted upon by the bound enzyme to produce color. The intensity of this colored product is directly proportional to the concentration of GSK-3β [pS9] present in the original specimen.
MCF7 cells (ATCC HTB-22) were seeded into 96 well fate bottom plates at a density of 10000 cells/well. […] Cells were harvested and lysed in cell extraction buffer (10 mM Tris, pH 7.4, 100 mM NaCl, 1 mM EDTA, 1 mM EGTA, 1 mM NaF, 20 mM Na4P2O7, 2 mM Na3VO4, 1% Triton X-100, 10 vol % glycerol, 0.1 vol % SDS, 0.5 vol % deoxycholate, 1 mM phenylmethylsulfonylfluorid (PMSF)). The lysate were centrifuged for 10 min. at 4° C. and the supernatant were transferred to a new tube. 50 μl of sample diluent (standard diluent buffer, Biosource) were added and 100 μl of cell lysate transferred into the tube and vortexed. 100 μl of each diluted cell lysate were added to the appropriate ELISA well plate and incubated for 3 h at room temperature. The plates were washed 4 times with 1× wash buffer (Biosource). 50 μl of detection antibody (GSK3 (Ser9) detection antibody; BioSource) were added to each well and incubated for 30 min. at room temperature. The washing procedure was repeated between each step. 100 μl of HRP-linked secondary antibody (anti-mouse IgG HRP-linked antibody) were added to each well and incubated for 30 min. at room temperature. 100 μl of TMB substrate (0.05 vol % 3,3′,5,5′ tetramethylbenzidine, 0.1 vol % hydrogen peroxide, complex polypeptides in a buffered solution; Biosource) were added to each well and incubated for 30 min. at room temperature. Finally 100 μl of Stop solution (0.05 vol % α and β unsaturated carbonyl compound) were added to each well and the plate were shaked gently for a few seconds. The absorbance was measured at ? 450 nm (Wallac Victor2; Perkin Elmer, USA) within 30 min. after adding the stop solution.
The analysis of the data was performed using a statistical program (Excel; Microsoft, USA) and the IC50 of pGSK3 inhibition was determined.

Data set [2] relates to OvCAR3 cells. The data set is described as follows: Cellular proliferation/cytotoxicity assay (Alamar Blue), OvCAR3 cells. The data set is classed as cell-based. The settings on record: Homo sapiens, OVCAR-3, 72 h, Alamar Blue (Resazurin), read-out: Anti-proliferative/Cytotoxic activity (OvCAR3 cells). The text has this: Viabilities are expressed as % values.
The subject of data set [3] is A549 cells. The data set is described as follows: Cellular proliferation/cytotoxicity assay (Alamar Blue), A549 cells. Conditions: Homo sapiens, A549, 72 h, read-out: Anti-proliferative/Cytotoxic activity (A549 cells).
Data set [4] relates to phospho-Akt (Ser473). The data set is described as follows: Cellular PI3K/Akt pathway assay (phospho-Akt ELISA). It is filed as cell-based. Conditions: MCF7 cells, β-Heregulin stimulated, 48 h, phospho-Akt1 (Ser473) ELISA. Here is the method: In order to study the cellular activity of the compounds according to the present invention, an Enzyme Linked Immunosorbent Assay (ELISA)-based assay has been used specific phospho-AKT. The assay is based on a Sandwich ELISA kit (PathScan™ Phospho-Akt1 (Ser473); Cell Signaling, USA; #7160).
The ELISA Kit detects endogenous levels of phosphorylated Akt protein. A phospho-Akt (Ser473) antibody (Cell Signaling, USA; #9271) has been coated onto the microwells. After incubation with cell lysates, the coated antibody captures the phosphorylated Akt protein. Following extensive washing, Akt1 monoclonal antibody (Cell Signaling, USA; #2967) is added to detect the captured phospho-Akt1 protein. HRP-linked anti-mouse antibody (HRP: horseradish peroxidase; Cell Signaling, USA; #7076) is then used to recognize the bound detection antibody. HRP substrate (=3,3′,5,5′-tetramethylbenzidine (TMB); Cell Signaling, USA; #7160) is added to develop colour. The magnitude of optical density for this developed color is proportional to the quantity of phosphorylated Akt protein. MCF7 cells (ATCC HTB-22) are seeded into 96 well fate bottom plates at a density of 10000 cells/well. 24 hours after seeding, the cells are serum starved using low-serum medium (IMEM media including 0.1% charcoal treated FCS (FCS: fetal calf serum)). […] To stimulate Akt phosphorylation, β-Heregulin (20 ng/ml β-HRG) is added in parallel to the compounds. Wells containing unstimulated control cells (no β-Heregulin stimulation) are incubated with or without the diluted compound. Wells containing untreated control cells (no compound) are filled with medium containing 0.5% v:v DMSO and are or are not stimulated with β-Heregulin.
Cells are harvested and lysed with brief sonification in 1× cell lysis buffer (20 mM Tris (pH7.5), 150 mM NaCl, 1 mM ethylene diaminetetraacetate (EDTA), 1 mM ethylene glycolbis(2-aminoethyl)-N,N,N′,N′-tetraacetic acid (EGTA), 1 vol % Triton X-100, 2.5 mM sodium pyrophosphate, 1 mM β-glycerolphosphate, 1 mM Na3VO4, 1 μg/ml leupeptin). The lysate is centrifuged for 10 min. at 4° C. and the supernatant is transferred to a new tube. 100 μl of sample diluent (0.1 vol % Tween-20, 0.1 vol % sodium azide in phosphate buffered saline (PBS)) are added to a microcentrifuge tube and 100 μl of cell lysate are transferred into the tube and vortexed. 100 μl of each diluted cell lysate are added to the appropriate ELISA well, and incubated overnight at 4° C. The plates are washed 4 times with 1× wash buffer (1 vol % tween-20, 0.33 vol % thymol, in PBS). Next 100 μl of detection antibody (Akt1 (2H10) monoclonal detection antibody; Cell Signaling, USA; #2967) are added to each well and incubation continued for 1 h at 37° C. The washing procedure is repeated between each step. 100 μl of secondary antibody (anti-mouse IgG HRP-linked antibody; Cell Signaling, USA; #7076) are added to each well and incubated for 30 min. at 37° C. Than, 100 μl of TMB substrate (0.05% 3,3′,5,5′ tetramethylbenzidine, 0.1% hydrogen peroxide, complex polypeptides in a buffered solution; Cell Signaling, USA; #7160) are added to each well and incubated for 30 min. at 25° C. Finally 100 μl of STOP solution (0.05 vol % α and β unsaturated carbonyl compound) are added to each well and the plate are shaked gently. The absorbance is measured at ? 450 nm (Wallac Victor2; Perkin Elmer, USA) within 30 min. after adding the STOP solution. The analysis of the data is performed using a statistical program (Excel; Microsoft, USA). Preferred compounds show an inhibitory activity towards Akt phosphorylation below 10 μM.

Data set [5] has as its system A549 cells.

On to `Fc1ccccc1-c1c(-c2ccc(CN3CCC(c4n[nH]c(-c5ccccn5)n4)CC3)cc2)nc2ncccn12` [Example 41, 3-(2-fluorophenyl)-2-(4-{[4-(5-pyridin-2-yl-1,2,4-triazol-3-yl)piperidin-1-yl]methyl}phenyl)imidazo[1,2-a]pyrimidine], for which the IC50 in data set [1] is 1 to 10 µM; in data set [2], below 10 µM; in data set [3], above 10 µM.
For `c1ccc(-c2nc(C3CCN(Cc4ccc(-c5nc6sccn6c5-c5nccs5)cc4)CC3)n[nH]2)nc1` [Example 42, 6-(4-{[4-(5-pyridin-2-yl-1,2,4-triazol-3-yl)piperidin-1-yl]methyl}phenyl)-5-(1,3-thiazol-2-yl)imidazo[2,1-b][1,3]thiazole] the same measures were above 10 µM, below 10 µM and below 10 µM.
With `Fc1cc(F)c2nc(-c3ccc(CN4CCC(c5nnc(-c6ccccn6)[nH]5)CC4)cc3)c(-c3ccccc3)n2c1` [Example 44, 6,8-Difluoro-3-phenyl-2-{4-[4-(5-pyridin-2-yl-4H-[1,2,4]triazol-3-yl)-piperidin-1-ylmethyl]-phenyl}-imidazo[1,2-a]pyridine], the IC50 in data set [4] (Homo sapiens) was below 1 µM; in data set [1] it was 1 to 10 µM; in data set [2] it was below 10 µM; in data set [3], above 10 µM.
As to `Cc1cn2c(-c3ccccc3)c(-c3ccc(CN4CCC(c5nnc(-c6ccccn6)[nH]5)CC4)cc3)nc2s1` [Example 46, 2-methyl-5-phenyl-6-[4-({4-[5-(pyridin-2-yl)-4H-1,2,4-triazol-3-yl]piperidin-1-yl}methyl)phenyl]imidazo[2,1-b][1,3]thiazole], the IC50 in data set [4] (Homo sapiens) is below 1 µM; in data set [1], 1 to 10 µM; in data set [3] it was below 10 µM.
`Cc1ccc(-c2nnc(C3CCN(Cc4ccc(-c5nc6c(C#N)cccn6c5-c5ccccc5)cc4)CC3)[nH]2)nc1` [Example 71, ′2-[4-({4-[5-(5-methylpyridin-2-yl)-4H-1,2,4-triazol-3-yl]piperidin-1-yl}methyl)phenyl]-3-phenylimidazo[1,2-a]pyridine-8-carbonitrile]: the results for the IC50 in data set [4] and in data set [5] were below 1 µM and below 10 µM, respectively.

Source of the values: patent US9387204B2, “Fused bicyclic imidazoles” (BAYER INTELLECTUAL PROPERTY GmbH, priority 2007, dated 2016).
